# Measurements: patent publication US6589983B1, “Benzopyran derivative” (Nissan Chemical Industries, Ltd., priority 1999, dated 2003)
# Test system: guinea-pig left atrium muscle
# Assay: Effects of compound on the functional refractory period in guinea-pig left atrium muscle
# Details: isolated atrium muscle, stimulated at 1 Hz, compound added cumulatively, 15 minutes per concentration, 36±1° C.
# Excerpt: Effects of compound on the functional refractory period in guinea-pig left atrium muscle and right ventricular papillary muscle
# Hearts were removed from guinea-pigs, and left atrium muscle or right ventricular papillary muscle were isolated therefrom in a Krebs-Henseleit solution aerated with 95% O2+5% CO2. The samples were stimulated electrically at a rate of 1 Hz and a voltage of 1.5 times of the threshold value reacted to stimulation (basic stimulation; S1) by using an electric stimulating apparatus. The contraction occurred at that time was recorded by a thermal stylus recorder via a FD pickup and a strain pressure amplifier. The functional refractory period is defined as the shortest time interval between S1 resulting from determinable contraction and an extra stimulation (S2). The time interval between S1 and S2 in the left atrium muscle sample was started from 150 msec, decreased in 10 msec steps until 100 msec, and thereafter 5 msec steps to the functional refractory period. For the right ventricular papillary muscle sample, it was started from 300 msec and decreased in 10 msec steps until the functional refractory period. Herein, S2 was set at twice of the threshold value which reacted to stimulation. The experimental temperature was 36±1° C. […] After determining the basic value before addition of the compound, the compound was added cumulatively, incubated for 15 minutes for respective concentration, and thereafter the functional refractory period was determined.
row,SMILES,Prolongation effect on FRP EC20
1,CC(=O)Nc1cc2c(cc1[N+](=O)[O-])OC(C)(C)[C@H](O)[C@H]2NCCc1ccccc1 [compound 1],6.1 µM
2,CC(=O)Nc1cc2c(cc1[N+](=O)[O-])OC(C)(C)[C@H](O)[C@H]2NCCCCc1ccccc1 [compound 3],4.0 µM
3,CC(=O)Nc1cc2c(cc1[N+](=O)[O-])OC(C)(C)[C@H](O)[C@H]2NCCc1ccc(O)cc1 [compound 4],5.0 µM
4,COc1ccc(CCN[C@H]2c3cc(NC(C)=O)c([N+](=O)[O-])cc3OC(C)(C)[C@@H]2O)cc1 [compound 5],5.5 µM
5,CC(=O)Nc1cc2c(cc1[N+](=O)[O-])OC(C)(C)[C@H](O)[C@H]2NCCc1ccc(Cl)cc1 [compound 6],1.4 µM
6,CC(=O)Nc1cc2c(cc1[N+](=O)[O-])OC(C)(C)[C@H](O)[C@H]2NCCc1ccc([N+](=O)[O-])cc1 [compound 8],1.8 µM

# Test system: not given
# Assay: not given
# Details: not given
row,SMILES,melting point
1,CC(=O)Nc1cc2c(cc1[N+](=O)[O-])OC(C)(C)[C@H](O)[C@H]2NCCc1ccc([N+](=O)[O-])cc1 (stereo in doubt),211 to 213 °C (dec.)
